In patent publication US20030045699A1, “Membrane receptors for steroids and sterols” (priority 2001, published 2003):

System: polypeptide according to the invention (membrane receptor for steroids and sterols)
Test: Receptor binding studies (binding assay) with radiolabeled steroids and sterols
Design: species or system human
Conditions: qualitative statement in the description; no value given
Experimental: In addition, the invention relates to a test system for identifying effectors of a polypeptide according to the invention, whereby a polypeptide according to the invention is incubated as a complete or partial sequence thereof with a steroid, a steroid analog or a sterol, and the amount of bound steroid, steroid analog or sterol is detected. As a partial sequence, e.g., the area that comprises the “leucine-rich repeats” and the island domain or shorter strands thereof can be used. The binding of the effectors can be measured, e.g., by labeled substances being used and the labeling (e.g., radioactivity or fluorescence) being measured. A displacement reaction can also be measured, however, by a binding labeled steroid being used and the displacement of the labeling by the receptor being measured after the addition of the substances to be tested. […]
Crude extracts and cytosol fractions (0.04 ml) were incubated at 4° C. for 2 hours with 10 μl of radioactive steroid or sterol (concentration in the batch 10 nmol/l) either in the absence or in the presence of a 100× excess of a non-radioactive substance (for determining the unspecific bond). […] After centrifuging (5 minutes, 15,000 g), an aliquot of the supernatant was removed, and the radioactivity was determined by means of a scintillation counter. […]

CC(C)=CCC[C@@H](C)[C@H]1CC=C2C3=C(CC[C@@]21C)[C@@]1(C)CC[C@H](O)C(C)(C)[C@@H]1CC3 [FF-MAS]
binding of the substance by the polypeptide according to the invention: binds
